Experimental data reported in patent US20260184713A1, “KINASE INHIBITORS” (The United States of America, as represented by the …, priority 2022, published 2026).
Like-named read-outs stand apart in the source and are kept apart here.

Columns and labels:
[1] = biological target: ERBB2/HER2 (Homo sapiens, UniProt P04626); test: HOTSPOT radiometric kinase assay
[2] = tested on: Luciferase; test: luciferase assay without PKA (Luciferase Only); format: biochemical
Excerpt: . Therefore, a competitive kinetic study was further conducted to investigate how 1 interacted with the PKA protein. […]. Thus, all the results supported that 1 was likely to function as an ATP-competitive inhibitor by direct interacting with the PKA catalytic unit (see FIGS. 2A-2B).

[3] = biological target: T1, ROCK2 (Homo sapiens, UniProt O75116); test: HOTSPOT radiometric kinase assay; format: biochemical; settings: 10 μM ATP
T1 construct: purchased Reaction Biology Corp

[4] = biological target: T2, PKN3 (Homo sapiens, UniProt Q6P5Z2); test: HOTSPOT radiometric kinase assay; format: biochemical; settings: 10 μM ATP
T2 construct: purchased Reaction Biology Corp

[5] = biological target: T3, RSK1 (Homo sapiens, UniProt Q15418); test: HOTSPOT radiometric kinase assay; format: biochemical; settings: 10 μM ATP
T3 construct: purchased Reaction Biology Corp

[6] = biological target: T4, RAF1 (Homo sapiens, UniProt P04049, Y340D/Y341D); test: HOTSPOT radiometric kinase assay; format: biochemical; settings: 10 μM ATP
T4 construct: purchased Reaction Biology Corp

[7] = biological target: T5, STK33 (Homo sapiens, UniProt Q9BYT3); test: HOTSPOT radiometric kinase assay; format: biochemical; settings: 10 μM ATP
T5 construct: purchased Reaction Biology Corp
T5 sequence (Q9BYT3 whole entry): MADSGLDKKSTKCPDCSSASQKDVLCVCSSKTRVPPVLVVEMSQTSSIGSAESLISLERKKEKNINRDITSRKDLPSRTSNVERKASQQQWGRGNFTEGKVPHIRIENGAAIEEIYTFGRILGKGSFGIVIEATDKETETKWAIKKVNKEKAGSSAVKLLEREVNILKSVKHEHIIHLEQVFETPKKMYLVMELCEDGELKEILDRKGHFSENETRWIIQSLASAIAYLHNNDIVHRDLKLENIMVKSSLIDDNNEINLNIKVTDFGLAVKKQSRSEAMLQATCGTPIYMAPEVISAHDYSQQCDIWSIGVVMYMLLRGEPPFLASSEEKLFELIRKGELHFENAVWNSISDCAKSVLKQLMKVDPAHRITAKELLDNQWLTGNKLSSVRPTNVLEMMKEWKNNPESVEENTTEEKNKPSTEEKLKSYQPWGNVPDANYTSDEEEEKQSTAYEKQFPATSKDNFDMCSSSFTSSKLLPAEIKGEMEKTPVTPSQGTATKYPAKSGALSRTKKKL

[8] = biological target: T6, PKCε (Homo sapiens, UniProt Q02156); test: HOTSPOT radiometric kinase assay; format: biochemical; settings: 10 μM ATP
T6 construct: purchased Reaction Biology Corp

[9] = biological target: T7, HASPIN (Homo sapiens, UniProt Q8TF76); test: HOTSPOT radiometric kinase assay; format: biochemical; settings: 10 μM ATP
T7 construct: purchased Reaction Biology Corp

[10] = biological target: T8, BRAF (Homo sapiens, UniProt P15056); test: HOTSPOT radiometric kinase assay; format: biochemical; settings: 10 μM ATP
T8 construct: purchased Reaction Biology Corp

[11] = biological target: T9, CLK4 (Homo sapiens, UniProt Q9HAZ1); test: HOTSPOT radiometric kinase assay; format: biochemical
T9 construct: purchased Reaction Biology Corp
T9 sequence (Q9HAZ1 whole entry): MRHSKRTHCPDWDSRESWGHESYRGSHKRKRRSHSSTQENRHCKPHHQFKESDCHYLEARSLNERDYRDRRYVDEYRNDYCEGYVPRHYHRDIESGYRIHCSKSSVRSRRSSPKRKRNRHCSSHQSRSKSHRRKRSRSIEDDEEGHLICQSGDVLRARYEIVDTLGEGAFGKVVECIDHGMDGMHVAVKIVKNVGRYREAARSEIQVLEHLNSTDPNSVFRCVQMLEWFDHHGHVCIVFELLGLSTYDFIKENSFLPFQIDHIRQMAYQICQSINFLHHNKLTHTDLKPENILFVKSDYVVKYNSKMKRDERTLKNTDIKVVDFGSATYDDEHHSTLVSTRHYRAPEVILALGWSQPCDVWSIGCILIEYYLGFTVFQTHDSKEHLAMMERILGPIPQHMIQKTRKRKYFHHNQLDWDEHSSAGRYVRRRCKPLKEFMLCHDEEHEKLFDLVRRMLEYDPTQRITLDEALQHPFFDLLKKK

[12] = biological target: T10, DYRK3 (Homo sapiens, UniProt O43781); test: HOTSPOT radiometric kinase assay; format: biochemical
T10 construct: purchased Reaction Biology Corp
T10 sequence (O43781 1-588): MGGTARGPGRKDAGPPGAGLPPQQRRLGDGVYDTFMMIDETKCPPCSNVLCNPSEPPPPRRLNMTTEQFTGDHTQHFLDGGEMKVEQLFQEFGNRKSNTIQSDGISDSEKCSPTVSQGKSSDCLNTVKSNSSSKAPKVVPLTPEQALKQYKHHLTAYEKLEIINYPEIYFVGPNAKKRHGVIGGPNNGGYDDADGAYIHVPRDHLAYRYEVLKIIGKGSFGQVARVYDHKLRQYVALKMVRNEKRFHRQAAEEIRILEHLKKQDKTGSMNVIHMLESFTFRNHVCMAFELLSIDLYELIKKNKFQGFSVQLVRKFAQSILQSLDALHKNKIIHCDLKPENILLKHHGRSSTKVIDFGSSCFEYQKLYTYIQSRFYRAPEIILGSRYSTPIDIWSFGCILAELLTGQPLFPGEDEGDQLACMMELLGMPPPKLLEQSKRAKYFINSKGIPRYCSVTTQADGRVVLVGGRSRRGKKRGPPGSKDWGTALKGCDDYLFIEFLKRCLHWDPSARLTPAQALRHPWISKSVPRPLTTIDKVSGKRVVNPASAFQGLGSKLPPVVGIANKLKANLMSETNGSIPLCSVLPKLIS

[13] = biological target: AKT1 (Homo sapiens, UniProt P31749); test: HOTSPOT radiometric kinase assay
Chain of AKT1 (P31749 whole entry): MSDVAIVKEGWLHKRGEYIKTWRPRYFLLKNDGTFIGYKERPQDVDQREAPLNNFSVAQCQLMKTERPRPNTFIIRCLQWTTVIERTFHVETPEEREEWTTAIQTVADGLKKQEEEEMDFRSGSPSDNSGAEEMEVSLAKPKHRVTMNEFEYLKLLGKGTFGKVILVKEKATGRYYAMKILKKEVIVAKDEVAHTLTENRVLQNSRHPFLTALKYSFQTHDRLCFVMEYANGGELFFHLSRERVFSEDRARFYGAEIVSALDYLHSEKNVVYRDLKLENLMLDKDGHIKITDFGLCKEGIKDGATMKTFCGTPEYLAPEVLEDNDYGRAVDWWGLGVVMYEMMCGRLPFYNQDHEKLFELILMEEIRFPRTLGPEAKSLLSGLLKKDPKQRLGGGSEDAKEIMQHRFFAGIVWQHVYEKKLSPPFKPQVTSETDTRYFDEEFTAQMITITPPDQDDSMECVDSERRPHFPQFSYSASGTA

[14] = biological target: MAP2K1 (MEK1) (Homo sapiens, UniProt Q02750); test: HOTSPOT radiometric kinase assay
Chain of MAP2K1 (MEK1) (Q02750 whole entry): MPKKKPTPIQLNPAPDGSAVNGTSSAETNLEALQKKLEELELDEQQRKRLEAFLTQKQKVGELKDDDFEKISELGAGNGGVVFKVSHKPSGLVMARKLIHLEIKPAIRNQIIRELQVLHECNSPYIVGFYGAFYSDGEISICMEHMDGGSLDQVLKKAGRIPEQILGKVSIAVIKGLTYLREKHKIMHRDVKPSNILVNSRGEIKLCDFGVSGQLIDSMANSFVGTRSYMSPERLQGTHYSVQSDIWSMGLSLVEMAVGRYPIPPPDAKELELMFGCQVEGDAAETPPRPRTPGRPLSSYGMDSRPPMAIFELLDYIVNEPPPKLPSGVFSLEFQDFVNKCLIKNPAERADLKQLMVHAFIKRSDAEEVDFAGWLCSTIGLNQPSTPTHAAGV

[15] = biological target: T11, CLK3 (Homo sapiens, UniProt P49761); test: HOTSPOT radiometric kinase assay; format: biochemical; settings: 10 μM ATP
T11 construct: purchased Reaction Biology Corp. (Malvern, PA, USA)

[16] = biological target: ERK1 (Homo sapiens, UniProt P27361); test: HOTSPOT radiometric kinase assay
[17] = biological target: T12, CDK9 (Homo sapiens, UniProt P50750); test: HOTSPOT radiometric kinase assay; format: biochemical; settings: 50 nM, 10 μM ATP
T12 construct: purchased Reaction Biology Corp

[18] = biological target: T13, WNK1 (Homo sapiens, UniProt Q9H4A3); test: HOTSPOT radiometric kinase assay; format: biochemical; settings: 10 μM ATP
T13 construct: purchased Reaction Biology Corp

[19] = biological target: T14, PKCγ (Homo sapiens, UniProt P05129); test: HOTSPOT radiometric kinase assay; format: biochemical
T14 construct: purchased Reaction Biology Corp

[20] = biological target: T15, EPHB3 (Homo sapiens, UniProt P54753); test: HOTSPOT radiometric kinase assay; format: biochemical; settings: 10 μM ATP
T15 construct: purchased Reaction Biology Corp
T15 sequence (P54753 34-998): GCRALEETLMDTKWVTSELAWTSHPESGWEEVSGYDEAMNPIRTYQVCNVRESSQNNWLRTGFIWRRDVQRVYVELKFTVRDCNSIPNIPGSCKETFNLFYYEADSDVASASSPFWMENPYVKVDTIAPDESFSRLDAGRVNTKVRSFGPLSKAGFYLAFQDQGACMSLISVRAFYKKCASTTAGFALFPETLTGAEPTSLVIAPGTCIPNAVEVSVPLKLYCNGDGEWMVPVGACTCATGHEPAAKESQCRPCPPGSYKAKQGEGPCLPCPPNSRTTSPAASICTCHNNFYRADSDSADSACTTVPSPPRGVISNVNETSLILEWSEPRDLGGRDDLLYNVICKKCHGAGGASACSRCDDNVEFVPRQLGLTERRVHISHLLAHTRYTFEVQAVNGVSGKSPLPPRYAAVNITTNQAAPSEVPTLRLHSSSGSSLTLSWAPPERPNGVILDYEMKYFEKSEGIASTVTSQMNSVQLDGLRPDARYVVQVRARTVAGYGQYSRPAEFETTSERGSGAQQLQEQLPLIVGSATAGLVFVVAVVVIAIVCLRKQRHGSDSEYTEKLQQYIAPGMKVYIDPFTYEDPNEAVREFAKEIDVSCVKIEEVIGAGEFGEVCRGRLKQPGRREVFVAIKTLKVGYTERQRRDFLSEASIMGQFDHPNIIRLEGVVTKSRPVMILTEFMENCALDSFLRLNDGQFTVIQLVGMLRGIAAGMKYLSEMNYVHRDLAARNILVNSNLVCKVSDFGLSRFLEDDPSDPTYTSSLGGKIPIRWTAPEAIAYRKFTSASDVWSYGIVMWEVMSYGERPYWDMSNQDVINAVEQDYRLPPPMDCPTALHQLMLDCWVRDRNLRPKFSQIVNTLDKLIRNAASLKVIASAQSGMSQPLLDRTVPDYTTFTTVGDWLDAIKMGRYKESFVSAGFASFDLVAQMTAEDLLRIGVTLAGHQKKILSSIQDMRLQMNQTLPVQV

[21] = biological target: T16, ROCK1 (Homo sapiens, UniProt Q13464); test: HOTSPOT radiometric kinase assay; format: biochemical; settings: 10 μM ATP
T16 construct: purchased Reaction Biology Corp

[22] = biological target: T17, PKCμ/PKD1 (Homo sapiens, UniProt Q15139); test: HOTSPOT radiometric kinase assay; format: biochemical; settings: 10 μM ATP
T17 construct: purchased Reaction Biology Corp

[23] = biological target: T18, CLK2 (Homo sapiens, UniProt P49760); test: HOTSPOT radiometric kinase assay; format: biochemical; settings: 10 μM ATP
T18 construct: purchased Reaction Biology Corp

[24] = biological target: CAMK1δ (Homo sapiens, UniProt Q8IU85); test: HOTSPOT radiometric kinase assay

Chain of ERBB2/HER2 (P04626 23-1255): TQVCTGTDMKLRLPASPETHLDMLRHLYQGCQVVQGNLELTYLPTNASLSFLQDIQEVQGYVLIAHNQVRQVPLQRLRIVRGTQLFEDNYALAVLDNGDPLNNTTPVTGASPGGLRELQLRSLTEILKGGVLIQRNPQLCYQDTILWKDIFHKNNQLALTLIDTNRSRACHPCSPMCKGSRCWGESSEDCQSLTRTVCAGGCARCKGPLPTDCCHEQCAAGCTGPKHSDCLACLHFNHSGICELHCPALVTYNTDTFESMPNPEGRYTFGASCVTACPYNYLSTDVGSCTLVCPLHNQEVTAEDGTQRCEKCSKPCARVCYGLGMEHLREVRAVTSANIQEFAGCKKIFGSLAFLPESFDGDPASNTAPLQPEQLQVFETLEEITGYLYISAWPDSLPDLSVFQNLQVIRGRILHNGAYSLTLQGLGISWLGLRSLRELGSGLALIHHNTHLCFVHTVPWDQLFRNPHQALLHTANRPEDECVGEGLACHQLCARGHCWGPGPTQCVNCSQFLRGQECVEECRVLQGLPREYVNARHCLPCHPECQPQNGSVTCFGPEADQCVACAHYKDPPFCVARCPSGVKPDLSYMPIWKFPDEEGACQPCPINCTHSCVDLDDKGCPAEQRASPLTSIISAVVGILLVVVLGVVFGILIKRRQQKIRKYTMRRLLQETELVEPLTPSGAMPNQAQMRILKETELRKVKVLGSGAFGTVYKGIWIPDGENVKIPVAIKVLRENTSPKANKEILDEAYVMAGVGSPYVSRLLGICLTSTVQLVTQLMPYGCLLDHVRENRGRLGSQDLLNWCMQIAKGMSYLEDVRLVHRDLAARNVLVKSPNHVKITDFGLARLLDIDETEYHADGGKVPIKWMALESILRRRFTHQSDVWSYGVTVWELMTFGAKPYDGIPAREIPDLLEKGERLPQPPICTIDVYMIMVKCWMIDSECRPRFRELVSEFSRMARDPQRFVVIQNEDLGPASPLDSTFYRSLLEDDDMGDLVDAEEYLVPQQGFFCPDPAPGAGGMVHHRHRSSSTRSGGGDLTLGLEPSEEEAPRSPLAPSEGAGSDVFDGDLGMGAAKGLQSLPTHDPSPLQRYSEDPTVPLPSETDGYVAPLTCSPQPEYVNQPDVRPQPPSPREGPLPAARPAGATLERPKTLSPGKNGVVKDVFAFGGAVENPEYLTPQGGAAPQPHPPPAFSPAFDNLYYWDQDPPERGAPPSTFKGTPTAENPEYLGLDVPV

Cn1cncc1C1=CN(c2ncnc3nc[nH]c23)CCS1 [Compound 1, Aplithianine A]
IC50 [1]: 18 to 65 µM
IC50 ([1]; read-out: ERBB2/HER2 IC50, 10 μM ATP): 26.4 µM
activity when PKA was absent in the assay [2]: no activity was observed
inhibition at 0.05 µM ([3]; 50 nM): 19.6%
inhibition at 2 µM ([3]; 2 μM): 93.3%
inhibition at 0.05 µM ([4]; 50 nM): 18.6%
inhibition at 2 µM ([4]; 2 μM): 80.4%
inhibition at 0.05 µM ([5]; 50 nM): 13%
inhibition at 2 µM ([5]; 2 μM): 82%
inhibition at 0.05 µM ([6]; 50 nM): 21.6%
inhibition at 2 µM ([6]; 2 μM): 47%
inhibition at 0.05 µM ([7]; 50 nM): 23.6%
inhibition at 2 µM ([7]; 2 μM): 80.5%
inhibition at 0.05 µM ([8]; 50 nM): 25.8%
inhibition at 2 µM ([8]; 2 μM): 92.7%
inhibition at 0.05 µM ([9]; 50 nM): 25.6%
inhibition at 2 µM ([9]; 2 μM): 88.4%
inhibition at 0.05 µM ([10]; 50 nM): 12.9%
inhibition at 2 µM ([10]; 2 μM): 35.1%
inhibition at 0.05 µM ([11]; 50 nM, 10 μM ATP): 27.1%
inhibition at 2 µM ([11]; 2 μM, 10 μM ATP): 84.7%
IC50 ([11]; 10 μM ATP, read-out: CLK4 IC50): 0.153 µM
CLK4 Differential (as compared to PKG1a) ([11]; IC50 (kinase)/IC50 (PKG1a)): 13.49
IC50 ([11]; Table 4 dose-response, read-out: CLK4 IC50 Values): 0.154 µM
inhibition at 0.05 µM ([12]; 50 nM, 10 μM ATP): 15.9%
inhibition at 2 µM ([12]; 2 μM, 10 μM ATP): 90.9%
IC50 ([12]; 10 μM ATP, read-out: DYRK3 IC50): 0.202 µM
DYRK3 Differential (as compared to PKG1a) ([12]; IC50 (kinase)/IC50 (PKG1a)): 19.13
IC50 ([12]; Table 4 dose-response, read-out: DYRK3 IC50 Values): 0.218 µM
IC50 [13]: 0.043 to 0.189 µM
inhibition at 0.05 µM ([13]; read-out: AKT1 % inhibition): 25.1%
inhibition at 2 µM ([13]; read-out: AKT1 % inhibition): 83.7%
IC50 ([13]; read-out: AKT1 IC50, 10 μM ATP): 0.179 µM
IC50 [14]: 18 to 65 µM
IC50 ([14]; read-out: MAP2K1 / MEK1 IC50, 10 μM ATP): 23.6 µM
IC50 [15]: 14.1 µM
IC50 [16]: 0.8 to 6.6 µM
IC50 ([16]; read-out: ERK1 IC50, 10 μM ATP): 5.71 µM
inhibition at 0.05 µM [17]: 12.4%
inhibition at 0.05 µM ([18]; 50 nM): 14.1%
inhibition at 2 µM ([18]; 2 μM): 10.7%
inhibition at 0.05 µM ([19]; 50 nM, 10 μM ATP): 30.5%
inhibition at 2 µM ([19]; 2 μM, 10 μM ATP): 92.8%
IC50 ([19]; 10 μM ATP, read-out: PKCγ IC50): 0.234 µM
PKCg Differential (as compared to PKG1a) ([19]; IC50 (kinase)/IC50 (PKG1a)): 13.99
IC50 ([19]; Table 4 dose-response, read-out: PKCg IC50 Values): 0.159 µM
inhibition at 0.05 µM ([20]; 50 nM): 12.8%
inhibition at 2 µM ([20]; 2 μM): 20.2%
inhibition at 0.05 µM ([21]; 50 nM): 27%
inhibition at 2 µM ([21]; 2 μM): 88.6%
inhibition at 0.05 µM ([22]; 50 nM): 21.3%
inhibition at 2 µM ([22]; 2 μM): 89.2%
inhibition at 2 µM [23]: 97.8%
IC50 [24]: 18 to 65 µM
IC50 ([24]; read-out: CAMK1δ IC50, 10 μM ATP): 52.3 µM
